Source: patent US5840684A, “Glycopeptide antibiotic derivatives” (Eli Lilly and Company, priority 1995, dated 1998)
Values after ≈ are worked out from the molar mass of the structure shown.

Assays:
[1] = tested on: vancomycin-resistant enterococci; assay: broth micro-dilution, mean geometric MIC; format: cell-based, Enterococcus faecium and Enterococcus faecalis; settings: enterococci, 24-hour incubation
[2] = tested on: Staphylococcus aureus SA1199B; format: cell-based
Procedure: (§1) The MIC's were determined using a standard broth micro-dilution assay.

[3] = tested on: Staphylococcus aureus S13E; format: cell-based
Procedure: as §1

[4] = tested on: Staphylococcus haemolyticus 105; assay: broth micro-dilution MIC; format: cell-based
Procedure: (§2) The formula I compounds have in vitro and in vivo activity against Gram-positive pathogenic bacteria. The MIC's were determined using a standard broth micro-dilution assay.

Escherichia coli EC14 = assay: broth micro-dilution MIC; format: cell-based
Procedure: as §2

[5] = tested on: Staphylococcus haemolyticus 415; assay: broth micro-dilution MIC; format: cell-based
Procedure: as §2

[6] = tested on: Haemophilus influenzae RD; assay: broth micro-dilution MIC; format: cell-based; settings: Haemophilus influenzae RD
Procedure: as §2

[7] = tested on: Enterococcus gallinarum 245; assay: broth micro-dilution MIC; format: cell-based; settings: Enterococcus gallinarum 245
Procedure: as §2

Entercoccus faecium 2041 = assay: broth micro-dilution MIC; format: cell-based; settings: Entercoccus faecium 2041
Procedure: as §2

[8] = tested on: Staphylococcus epidermidis 270; assay: broth micro-dilution MIC; format: cell-based
Procedure: as §2

Entercoccus faecium 180 = assay: broth micro-dilution MIC; format: cell-based; settings: Entercoccus faecium 180
Procedure: as §2

[9] = tested on: Streptococcus pneumoniae P1; assay: broth micro-dilution MIC; format: cell-based
Procedure: as §2

[10] = tested on: vancomycin-susceptible enterococci; assay: broth micro-dilution, mean geometric MIC; format: cell-based, Enterococcus faecium and Enterococcus faecalis; settings: enterococci, 24-hour incubation
[11] = tested on: Staphylococcus aureus X400; assay: broth micro-dilution MIC; format: cell-based
Procedure: as §1

[12] = tested on: Staphylococcus aureus X778; assay: broth micro-dilution MIC; format: cell-based
Procedure: as §1

[13] = tested on: Staphylococcus aureus 489; assay: broth micro-dilution MIC; format: cell-based
Procedure: as §1

[14] = tested on: Staphylococcus aureus 447; assay: broth micro-dilution MIC; format: cell-based
Procedure: as §1

[15] = tested on: Staphylococcus aureus 446; assay: broth micro-dilution MIC; format: cell-based
Procedure: as §1

[16] = tested on: Streptococcus pyogenes C203; assay: broth micro-dilution MIC; format: cell-based
Procedure: as §1

[17] = tested on: Staphylococcus aureus SA1199; assay: broth micro-dilution MIC; format: cell-based
Procedure: as §1

[18] = tested on: Entercoccus faecium 180-1; assay: broth micro-dilution MIC; format: cell-based
Procedure: as §1

Entercoccus faecium 276 = assay: broth micro-dilution MIC; format: cell-based
Procedure: as §1

[19] = tested on: Staphylococcus aureus SA1199A; assay: broth micro-dilution MIC; format: cell-based
Procedure: as §1

[20] = tested on: Staphylococcus aureus 491; assay: broth micro-dilution MIC; format: cell-based
Procedure: as §1

Row | SMILES | mean geometric MIC, Vancomycin Resistant Strains [1] [µg/mL] | MIC [2] [µg/mL] | MIC [3] [µg/mL] | MIC [4] [µg/mL] | MIC (Escherichia coli EC14) [µg/mL] | MIC [5] [µg/mL] | MIC [6] [µg/mL] | MIC [7] [µg/mL] | MIC (Entercoccus faecium 2041) [µg/mL] | MIC [8] [µg/mL] | MIC (Entercoccus faecium 180) [µg/mL] | MIC [9] [µg/mL] | mean geometric MIC, Vancomycin Sensitive Strains [10] [µg/mL] | MIC [11] [µg/mL] | MIC [12] [µg/mL] | MIC [13] [µg/mL] | MIC [14] [µg/mL] | MIC [15] [µg/mL] | MIC [16] [µg/mL] | MIC [17] [µg/mL] | other results
1 | CC(C)CC(C(=O)NC1C(=O)NC(CC(N)=O)C(=O)NC2C(=O)NC3C(=O)NC(C(=O)NC(C(=O)O)c4cc(O)cc(O)c4-c4cc3ccc4O)C(OC3CC(C)(N)C(O)C(C)O3)c3ccc(c(Cl)c3)Oc3cc2cc(c3OC2OC(CO)C(O)C(O)C2OC2CC(C)(NCc3ccc(-c4ccc(Cl)cc4)cc3)C(O)C(C)O2)Oc2ccc(cc2Cl)C1O)N(C)Cc1ccc(-c2ccc(Cl)cc2)cc1.O=C(O)C(F)(F)F (stereo not drawn) [Compound 253] | 4.8 | 32 | 32 | 16 | > 64 | 16 | > 64 | 16 | 4 | 8 | 0.5 | 0.125 | 3 | 32 | 16 | 16 | 16 | 64 | 0.25 | 32 | MIC [18]: 0.5 µg/mL; MIC (Entercoccus faecium 276): 16 µg/mL; MIC [19]: 1 µg/mL; MIC [20]: 2 µg/mL
2 | CNC(CC(C)C)C(=O)NC1C(=O)NC(CC(N)=O)C(=O)NC2C(=O)NC3C(=O)NC(C(=O)NC(C(=O)O)c4cc(O)cc(O)c4-c4cc3ccc4O)C(OC3CC(C)(NCc4ccc(-c5ccc(Cl)cc5)cc4)C(O)C(C)O3)c3ccc(c(Cl)c3)Oc3cc2cc(c3OC2OC(CO)C(O)C(O)C2OC2CC(C)(NCc3ccc(-c4ccc(Cl)cc4)cc3)C(O)C(C)O2)Oc2ccc(cc2Cl)C1O.O=C(O)C(F)(F)F (stereo not drawn) [Compound 254] | 2 | 16 | 32 | 16 | > 64 | 16 | > 64 | 16 | 4 | 8 | 0.25 | ≤ 0.06 | 0.5 | 8 | 4 | 16 | 16 | 32 | 0.5 | 8 | MIC [18]: 0.25 µg/mL; MIC (Entercoccus faecium 276): 8 µg/mL; MIC [19]: 0.5 µg/mL; MIC [20]: 1 µg/mL
3 | CC(C)CC(C(=O)NC1C(=O)NC(CC(N)=O)C(=O)NC2C(=O)NC3C(=O)NC(C(=O)NC(C(=O)O)c4cc(O)cc(O)c4-c4cc3ccc4O)C(OC3CC(C)(NCc4ccc(-c5ccc(Cl)cc5)cc4)C(O)C(C)O3)c3ccc(c(Cl)c3)Oc3cc2cc(c3OC2OC(CO)C(O)C(O)C2OC2CC(C)(NCc3ccc(-c4ccc(Cl)cc4)cc3)C(O)C(C)O2)Oc2ccc(cc2Cl)C1O)N(C)Cc1ccc(-c2ccc(Cl)cc2)cc1.O=C(O)C(F)(F)F (stereo not drawn) [Compound 255] | 64 | > 64 | > 64 | > 64 | > 64 | > 64 | > 64 | > 64 | 16 | > 64 | > 64 | 1 | 32 | > 64 | > 64 | > 64 | > 64 | 64 | 16 | > 64 | MIC [18]: 16 µg/mL; MIC (Entercoccus faecium 276): > 64 µg/mL; MIC [19]: 16 µg/mL; MIC [20]: > 64 µg/mL
4 | CC(C)CC(C(=O)NC1C(=O)NC(CC(N)=O)C(=O)NC2C(=O)NC3C(=O)NC(C(=O)NC(C(=O)O)c4cc(O)cc(O)c4-c4cc3ccc4O)C(OC3CC(C)(N)C(O)C(C)O3)c3ccc(c(Cl)c3)Oc3cc2cc(c3OC2OC(CO)C(O)C(O)C2OC2CC(C)(N)C(O)C(C)O2)Oc2ccc(cc2Cl)C1O)N(C)Cc1ccc(O)cc1 (stereo not drawn) [Compound 257] | 64 | ≤ 0.06 | ≤ 0.06 | 2 (≈ 1.18 µM) | > 64 | 8 (≈ 4.71 µM) | > 64 | ≤ 0.06 | ≤ 0.06 | 0.25 (≈ 0.147 µM) | 4 (≈ 2.35 µM) | ≤ 0.06 | 1 | ≤ 0.06 | ≤ 0.06 | ≤ 0.06 | 0.25 (≈ 0.147 µM) | ≤ 0.06 | ≤ 0.06 | ≤ 0.06 | MIC [18]: ≤ 0.06 µg/mL; MIC (Entercoccus faecium 276): ≤ 0.06 µg/mL; MIC [19]: ≤ 0.06 µg/mL; MIC [20]: ≤ 0.06 µg/mL
5 | CC(C)CC(C(=O)NC1C(=O)NC(CC(N)=O)C(=O)NC2C(=O)NC3C(=O)NC(C(=O)NC(C(=O)O)c4cc(O)cc(O)c4-c4cc3ccc4O)C(OC3CC(C)(N)C(O)C(C)O3)c3ccc(c(Cl)c3)Oc3cc2cc(c3OC2OC(CO)C(O)C(O)C2OC2CC(C)(NCc3ccc4c(c3)CCCC4)C(O)C(C)O2)Oc2ccc(cc2Cl)C1O)N(C)Cc1ccc2c(c1)CCCC2 (stereo not drawn) [Compound 258] | 8 | 0.25 (≈ 0.133 µM) | 2 (≈ 1.06 µM) | 1 (≈ 0.532 µM) | > 64 | 2 (≈ 1.06 µM) | > 64 | 1 (≈ 0.532 µM) | 0.5 (≈ 0.266 µM) | 2 (≈ 1.06 µM) | 1 (≈ 0.532 µM) | ≤ 0.06 | 1 | 2 (≈ 1.06 µM) | 1 (≈ 0.532 µM) | 1 (≈ 0.532 µM) | 1 (≈ 0.532 µM) | 1 (≈ 0.532 µM) | ≤ 0.06 | 2 (≈ 1.06 µM) | MIC [18]: 4 µg/mL (≈ 2.13 µM); MIC (Entercoccus faecium 276): 1 µg/mL (≈ 0.532 µM); MIC [19]: 2 µg/mL (≈ 1.06 µM); MIC [20]: 1 µg/mL (≈ 0.532 µM)
6 | CC(C)CC(C(=O)NC1C(=O)NC(CC(N)=O)C(=O)NC2C(=O)NC3C(=O)NC(C(=O)NC(C(=O)O)c4cc(O)cc(O)c4-c4cc3ccc4O)C(OC3CC(C)(N)C(O)C(C)O3)c3ccc(c(Cl)c3)Oc3cc2cc(c3OC2OC(CO)C(O)C(O)C2OC2CC(C)(NCc3ccc(N(C)c4ccccc4)cc3)C(O)C(C)O2)Oc2ccc(cc2Cl)C1O)N(C)Cc1ccc(N(C)c2ccccc2)cc1 (stereo not drawn) [Compound 260] | 4.8 | 2 (≈ 1.01 µM) | 4 (≈ 2.02 µM) | 1 (≈ 0.504 µM) | > 64 | 2 (≈ 1.01 µM) | > 64 | 0.25 (≈ 0.126 µM) | 1 (≈ 0.504 µM) | 1 (≈ 0.504 µM) | 0.5 (≈ 0.252 µM) | ≤ 0.06 | 1.1 | 4 (≈ 2.02 µM) | 1 (≈ 0.504 µM) | 2 (≈ 1.01 µM) | 4 (≈ 2.02 µM) | 2 (≈ 1.01 µM) | ≤ 0.06 | 2 (≈ 1.01 µM) | MIC [18]: 0.25 µg/mL (≈ 0.126 µM); MIC (Entercoccus faecium 276): 2 µg/mL (≈ 1.01 µM); MIC [19]: 0.5 µg/mL (≈ 0.252 µM); MIC [20]: 1 µg/mL (≈ 0.504 µM)
